Results as given in US5436229A, “Bisulfite adducts of arginine aldehydes” (Eli Lilly and Company, priority 1994, dated 1995).
Non-standard residues stand in square brackets, D forms with d. Residues, ends and D or L forms follow the SMILES beside them. dNMeCha = CN[C@H](CC1CCCCC1)C(=O)O

Legend:
Bovine trypsin = target: T1, Bovine trypsin (Bos taurus, UniProt P00760); test: Serine protease inhibition (Kass), trypsin; assay type: biochemical
T1 construct: Bovine trypsin is purchased from Worthington Biochemicals; purchased Worthington Biochemicals, Freehold, N.J
T1 sequence (P00760 24-246): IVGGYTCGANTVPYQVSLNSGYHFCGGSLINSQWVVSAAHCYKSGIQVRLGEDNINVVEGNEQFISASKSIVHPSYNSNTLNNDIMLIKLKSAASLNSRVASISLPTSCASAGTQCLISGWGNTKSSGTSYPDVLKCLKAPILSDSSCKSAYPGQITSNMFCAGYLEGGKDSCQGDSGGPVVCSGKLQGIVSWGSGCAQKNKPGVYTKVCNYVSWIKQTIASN
In short: (§1)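 Chromogenic p-nitroanilide substrate assays run as for human thrombin; trypsin with N-Benzoyl-Phe-Val-Arg-p-nitroanilide, human factor Xa with N-Benzoyl-Ile-Glu-Gly-Arg-p-nitroanilide. Values are association constants (Kass).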

[1] = Index of Bioavailability (plasma TT AUC, oral vs i.v.); assay type: in vivo; conditions: rats, oral vs i.v. bolus
Text: Assays are done in duplicate and averaged.
Each sample population represents alternating sequential time points.

[2] = target: T2, tissue plasminogen activator (t-PA) (Homo sapiens, UniProt P00750); test: Serine protease inhibition (Kass), t-PA; assay type: biochemical
T2 construct: purchased American Diagnostica, Greenwich, Conn
T2 sequence (P00750 36-562): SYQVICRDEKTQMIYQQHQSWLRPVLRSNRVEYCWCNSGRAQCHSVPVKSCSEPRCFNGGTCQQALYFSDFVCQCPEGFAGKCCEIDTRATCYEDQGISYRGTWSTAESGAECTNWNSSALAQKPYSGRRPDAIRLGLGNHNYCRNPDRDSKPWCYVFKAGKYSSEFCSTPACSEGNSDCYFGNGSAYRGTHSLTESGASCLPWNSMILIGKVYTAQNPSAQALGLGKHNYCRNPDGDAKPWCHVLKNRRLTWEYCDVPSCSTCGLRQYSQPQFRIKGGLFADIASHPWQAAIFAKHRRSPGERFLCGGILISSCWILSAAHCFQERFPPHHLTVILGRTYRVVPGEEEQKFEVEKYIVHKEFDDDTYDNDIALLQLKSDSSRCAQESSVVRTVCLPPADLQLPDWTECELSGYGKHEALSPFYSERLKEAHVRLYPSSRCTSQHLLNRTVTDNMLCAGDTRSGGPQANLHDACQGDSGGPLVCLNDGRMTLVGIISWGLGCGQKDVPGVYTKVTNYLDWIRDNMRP

human thrombin = human thrombin (Homo sapiens, UniProt P00734); test: Thrombin amidase inhibition (Kass), chromogenic substrate; assay type: biochemical
In short: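 Kass, in liter per mole, was averaged over several compound concentrations, using free thrombin from a rate standard curve and free inhibitor as added minus bound. Hydrolysis of chromogenic substrate (0.25 mg/ml solution) was monitored at 405 nm with human thrombin (8 NIH units/ml solution) in Tris-NaCl buffer pH 7.4, compound in 50% aqueous methanol.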

Human plasmin = target: T3, Human plasmin (Homo sapiens, UniProt P00747); test: Serine protease inhibition (Kass), plasmin; assay type: biochemical
T3 construct: Human plasmin is purchased from Boehringer Mannheim; purchased Boehringer Mannheim, Indianapolis, Ind
T3 sequence (P00747 581-810 limits assumed): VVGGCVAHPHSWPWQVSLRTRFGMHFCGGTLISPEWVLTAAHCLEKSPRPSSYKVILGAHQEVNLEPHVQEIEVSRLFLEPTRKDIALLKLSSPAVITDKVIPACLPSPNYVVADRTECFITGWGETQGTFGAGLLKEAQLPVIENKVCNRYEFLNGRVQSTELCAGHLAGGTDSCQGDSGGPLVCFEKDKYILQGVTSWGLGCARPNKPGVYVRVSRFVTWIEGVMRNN
T3 sequence (P00747 97-580 partner limits assumed): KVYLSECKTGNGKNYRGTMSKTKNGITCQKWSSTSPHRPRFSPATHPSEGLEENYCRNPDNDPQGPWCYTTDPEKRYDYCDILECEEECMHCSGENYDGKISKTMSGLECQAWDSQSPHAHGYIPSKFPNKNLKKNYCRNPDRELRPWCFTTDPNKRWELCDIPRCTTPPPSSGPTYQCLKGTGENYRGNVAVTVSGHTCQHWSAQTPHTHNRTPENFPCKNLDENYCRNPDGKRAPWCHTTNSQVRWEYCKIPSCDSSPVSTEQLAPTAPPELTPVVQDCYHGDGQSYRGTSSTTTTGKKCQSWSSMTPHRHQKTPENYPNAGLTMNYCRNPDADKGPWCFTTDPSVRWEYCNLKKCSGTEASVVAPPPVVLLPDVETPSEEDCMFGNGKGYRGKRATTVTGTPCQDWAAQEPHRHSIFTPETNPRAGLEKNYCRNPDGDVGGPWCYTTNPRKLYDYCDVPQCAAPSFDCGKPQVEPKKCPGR
In short: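 Kass values come from the thrombin chromogenic procedure applied to fibrinolytic proteases. t-PA (nt-PA single chain, or mt-PA6) paired with substrate H-D-Ile-Pro-Arg-p-nitroanilide; human plasmin paired with H-D-Val-Leu-Lys-p-nitroanilide.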

human plasma [3] = test: Human plasma anticoagulation, thrombin time (TT); assay type: biochemical
In short: (§2)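 Compounds added across a wide concentration range to human plasma; APTT, PT and TT clotting times measured on a coagulation instrument, bovine thrombin used for plasma assays. Concentration doubling clotting time estimated by linear extrapolation.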

human plasma [4] = test: Human plasma anticoagulation, activated partial thromboplastin time (APTT); assay type: biochemical
In short: as §2

factor Xa = target: T4, factor Xa (Homo sapiens, UniProt P00742); test: Serine protease inhibition (Kass), factor Xa; assay type: biochemical
T4 construct: Human factors X, Xa, IXa, XIa, and XIIa are purchased from Enzyme Research Laboratories; purchased Enzyme Research Laboratories, South Bend, Ind
T4 sequence (P00742 235-488 limits assumed): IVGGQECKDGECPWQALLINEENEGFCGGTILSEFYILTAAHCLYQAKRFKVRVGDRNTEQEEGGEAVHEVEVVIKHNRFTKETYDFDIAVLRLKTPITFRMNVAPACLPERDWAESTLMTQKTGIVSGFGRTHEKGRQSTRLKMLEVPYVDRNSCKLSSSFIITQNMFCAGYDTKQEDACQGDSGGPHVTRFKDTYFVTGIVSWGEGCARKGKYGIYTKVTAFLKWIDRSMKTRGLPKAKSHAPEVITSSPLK
T4 sequence (P00742 41-179 partner limits assumed): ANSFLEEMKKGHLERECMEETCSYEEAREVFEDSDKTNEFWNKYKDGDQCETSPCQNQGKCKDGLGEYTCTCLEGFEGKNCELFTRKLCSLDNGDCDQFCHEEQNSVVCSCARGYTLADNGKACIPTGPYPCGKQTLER
In short: as §1

| SMILES | Kass Trypsin (Bovine trypsin) [L/mol × 10^6] | Percent Relative Activity (Index of Bioavailability) [1] [%] | Kass t-PA [2] [L/mol × 10^6] | Kass Human Thrombin (human thrombin) [L/mol × 10^6] | Kass Plasmin (Human plasmin) [L/mol × 10^6] | 2 × Clotting time TT (human plasma [3]) [ng/mL] | 2 × Clotting time APTT (human plasma [4]) [ng/mL] | Kass Xa (factor Xa) [L/mol × 10^6] |
| --- | --- | --- | --- | --- | --- | --- | --- | --- |
| N=C(N)NCCCC(C=O)NC(=O)C1CCCN1C(=O)C1CC2CCCCC2CN1.O=S(=O)(O)O [80 (Step F), D-3-(cis)Piq-Pro-Arg-H.H2 SO4] | 183 | 46 | 0.5 | 56 | 1.6 | – | – | – |
| CN[C@H](CC1CCCCC1)C(=O)N1CCC[C@H]1C(=O)N[C@H](C=O)CCCNC(=N)N.Cl [Example 75, N-methyl-D-cyclohexylalanyl-L-Prolinyl-L-Arginine Aldehyde Hydrochloride] (H-[dNMeCha]-Pro-Arg-aldehyde) | 160 | 13 | 0.37 | 590 | 7.7 | 18 | 420 | 5.6 |
